Legend:
[1] = PAMPA-BBB permeation assay; format: in vitro ADME, porcine; conditions: pig, PBS/EtOH (70:30), mean ± SD, read-out: Permeability Pe
Protocol: In vitro Blood-Brain Barrier Permeation Assay
To evaluate the brain penetration of the different compounds, a parallel artificial membrane permeation assay for blood-brain barrier was used, following the method described by Di et al.1 The in vitro permeability (Pe) of fourteen commercial drugs (see Table S1) through lipid extract of porcine brain membrane together with the test compounds were determined. Commercial drugs and assayed compounds were tested using a mixture of PBS:ETOH (70:30). Assay validation was made by comparing the experimental permeability with the reported values of the commercial drugs by bibliography and lineal correlation between experimental and reported permeability of the fourteen commercial drugs using the parallel artificial membrane permeation […]
From this equation and taking into account the limits established by Di et al. for BBB permeation, we established the ranges of permeability […]
predictive penetration in the CNS used as references.
1 Di, L.; Kerns, E. H.; Fan, K.; McConnell, O. J.; and Carter, G. T. High throughput artificial membrane permeability assay for blood-brain barrier.

[2] = test system: human dopaminergic cell line SH-SY5Y; assay: Cytotoxicity of compounds alone, MTT assay, SH-SY5Y; format: cell-based; conditions: 24 h, escalating concentrations
Protocol: In the study of neurotoxicity associated with AD, the HT22 mouse hippocampal neuronal cell line has been recognized as an effective cell model. HT22 cells were purchased from Merck-Sigma-Aldrich (SCC12, Madrid, Spain) and cultured in DMEM-F12 (Gibco, Fisher Scientific, Madrid, Spain) supplemented with foetal bovine serum (FBS, 10%) and 1% penicillin/streptomycin under standard conditions (37 °C, 5% CO2). The human dopaminergic cell line SH-SY5Y, in turn, has been widely used as an in vitro model to study the pathogenesis of PD associated with dopaminergic degeneration. Cells, acquired from the American Type Culture Collection (ATCC, Rockville, MD, USA, Ref.CRL-2266), were grown in RPMI medium (Gibco) supplemented with glutamine (2 mM), 10% FBS, and 1% penicillin/streptomycin under standard conditions. Semiconfluent cells (90%) were seeded on 96-well plates at 3 × 10^4 per well and incubated for 24 h before treatment.
Neuronal cultures, HT-22 and SH-SY5Y, seeded on 96-well plates were treated with LSL33, LSL34, and LSL60101 for 24 h, and viability was assessed using the MTT assay. […] Then, cultures were treated for 1h with LSL33 at 2 μM and LSL34 and LSL60101 at 1 μM. This dose was chosen based on previous studies. Subsequently, HT-22 cultures were exposed to glutamate (10 mM, Merck-Sigma), while SH-SY5Y cultures received 6-hydroxydopamine (6-OHDA, 35 μM, Merck-Sigma). The cells were then incubated for a minimum of 16 h. Finally, the cellular viability and nitrite production of the cultures were assessed.
The assessment of cell viability was conducted using the 3-(4,5-dimethylthiazol-2-yl)-5-(3-carboxymethoxyphenyl)-2-(4-sulfophenyl)-2H-tetrazolium (MTT) assay, following the instructions provided by the manufacturer (Roche Diagnostic, Darmstadt, Germany). […] The absorbance of the solution was measured at 595–650 nm using a spectrophotometer. The experiments were performed at least three times, and the results were expressed as a percentage of the control. […]

[3] = test system: glial cells: BV2 (microglia), C6 (astroglia), primary microglial and astroglial cultures; assay: LPS-induced nitrite production in glial cultures (Griess); format: cell-based, mouse, rat; conditions: LPS 10 μg/mL, 24 h, ligands at 1 μM
Protocol: PD has been described in the same way. Therefore, we based our in vitro model of neuroinflammation on the use of two established glial cell lines, C6 and BV2, as well as primary glial cultures derived from the mouse cerebral cortex. […] When attaining semiconfluence, glial cells were seeded on 96-well plates at 3 × 10^4/well and incubated for 24 h before treatment. Primary astrocytes and microglia were obtained and cultured following a previously described protocol. In brief, the cerebral cortex was dissected, dissociated, and incubated with 0.25% trypsin and EDTA at 37 °C for 1 h. The tissue was then centrifuged, and the resulting pellet was washed with Hanks’ balanced salt solution (Invitrogen). The cells were plated on non-coated flasks and incubated under standard conditions for a minimum of 7 days. Subsequently, each type of glial cell was isolated to obtain pure cultures. To achieve this, the glial cells in the culture flasks were agitated on an orbital shaker for 4 h at 240 rpm and 37 °C. […]
To determine the inflammatory state, glial cells subcultured in 96-well plates were exposed to lipopolysaccharide (LPS, 10 μg/mL, Sigma). […] After 24 h in culture, nitrite production was evaluated.
Following the designated treatments, 100 μL of the cell culture supernatant was mixed with an equal volume of Griess reagent (consisting of 1% sulfanylamide and 0.1% naphthyl ethylene diamine in 5% phosphoric acid, sourced from Sigma-Aldrich, Madrid, Spain) at room temperature for 15 min. […] The absorbance of the mixture was measured at 492/540 nm using a microplate reader from Thermofisher (Madrid, Spain). […]
Figure 5 Role of I2-IR ligands in an in vitro model of neuroinflammation. Nitrite production in the supernatant of glial cells was assessed using the Griess reaction after a 24 h exposure to lipopolysaccharide (LPS, 10 μg/mL) in the presence of the indicated I2-IR ligands at a concentration of 1 μM. […]

Row | Papp [1] [×10⁻⁶ cm/s] | SMILES | cytotoxicity (MTT viability) [2] | nitrite levels [3]
1 | 14.1 ± 0.5 | Cl.c1ccc2oc(-n3ccnc3)cc2c1 [LSL34, 1-(Benzofuran-2-yl)-1H-imidazole hydrochloride] | None of the compounds tested were cytotoxic | notable reduction in nitrite levels
2 | 13.6 ± 0.4 | c1ccc2oc(-c3ncc[nH]3)cc2c1 [LSL60101, reference compound] | None of the compounds tested were cytotoxic | notable reduction in nitrite levels

Row | SMILES | Papp [1] [×10⁻⁶ cm/s] | cytotoxicity (MTT viability) [2] | nitrite levels [3]
3 | Cl.c1ccc2sc(-c3ncc[nH]3)cc2c1 [LSL33, 2-(Benzo[b]thiophene-2-yl)-1H-imidazole hydrochloride] | 8.1 ± 0.4 | None of the compounds tested were cytotoxic | notable reduction in nitrite levels

Reference: publication PMC10610545, “Preclinical Evaluation of an Imidazole-Linked Heterocycle for Alzheimer’s Disease” (Pharmaceutics, 2023)
